# According to patent publication US10842806B2, “Methods for treating ocular inflammatory disorders” (Massachusetts Eye and Ear Infirmary, priority 2011, dated 2020):
# Key:
# [1] = system: splenic DCs; test: Splenic DC co-stimulatory molecule expression in EAU mice (FACS); format: in vivo; conditions: AICAR-treated vs non-treated EAU mice; twelve days after immunization
# Description: To investigate whether DC maturation was affected by AICAR, splenic DCs were isolated from EAU mice and analyzed for co-stimulatory molecule expression. Specifically, spleen cells from 4 to 5 EAU mice were pooled at twelve days after immunization and incubated with the following monoclonal antibodies: anti-CD11c (N418), CD40 (3/23), CD80 (16-10A1), CD86 (GL-1), I-A^b (AF6-120.1) (Biolegend). Spleen cells were gated on the basis of forward and side scatter profile and propidium iodide or DAPI exclusion. Samples of 1×10^6 cells were analyzed by LSR (Becton Dickinson, Franklin Lakes, N.J.).
# [2] = system: CD4+CD25+Foxp3+ Treg population; test: Treg population in LN cells of EAU mice (flow cytometry); format: in vivo, C57BL/6 (WT) mice; conditions: control vs AICAR-treated mice; 21 days after immunization
# From the text: The effect of AICAR on the regulatory T (Treg) cell population in the EAU mice was also directly assessed. Specifically, LN cells from five mice were harvested at 21 days after immunization and stained with a mouse regulatory T cell staining kit #2 (eBioscience) according to manufacturer's instructions. CD4^+CD25^+Foxp3^+ Treg populations were subsequently detected by flow cytometry.
structure (smiles),measurement,setting,value
"NC(=O)c1ncn([C@@H]2O[C@H](CO)[C@@H](O)[C@H]2O)c1N [AICAR, 5-aminoimidazole-4-carboxamide-1-β-d-ribofuranoside]","CD40, CD80, CD86 and I-A^b expression on splenic DCs",[1],no difference
same,CD4+CD25+Foxp3+ Treg population,[2],not significantly different
